Columns and labels:
[1] = (§1) The drug is tested on Z-021 corresponding to metagenome with ENA study accession number: PRJEB37062 and ENA sample accession number: ERS12561820 for biotransformation under anaerobic condition. The drug concentrations were measured over 9 timepoints collected between 0 and 24 hours of incubation by liquid-chromatography-coupled mass spectrometry (LC–MS); conditions: 2 µM
[2] = (§2) The drug is tested on WLS-007 corresponding to human gut metagenome with ENA study accession number: PRJEB37062 and ENA sample accession number: ERS12561742 for biotransformation under anaerobic condition. The drug concentrations were measured over 9 timepoints collected between 0 and 24 hours of incubation by liquid-chromatography-coupled mass spectrometry (LC–MS); conditions: 2 µM
[3] = human gut metagenome, 24 h, 2 µM
[4] = as §2, with “Z-014” for “WLS-007”, “rat” for “human”, “ERS12561814” for “ERS12561742”; conditions: 2 µM
[5] = as §2, with “Z-030” for “WLS-007”, “mouse” for “human”, “ERS12561829” for “ERS12561742”; conditions: 2 µM
[6] = as §2, with “WLS-006” for “WLS-007”, “ERS12561741” for “ERS12561742”; conditions: 2 µM
[7] = human gut metagenome, 24 h, 2 µM; remark: listed apart in the source
[8] = as §2, with “WLS-220” for “WLS-007”, “ERS12561769” for “ERS12561742”; conditions: 2 µM
[9] = as §2, with “WLS-027” for “WLS-007”, “ERS12561744” for “ERS12561742”; conditions: 2 µM
[10] = human gut metagenome, 24 h, 2 µM; remark: listed apart in the source
[11] = as §2, with “WLS-086” for “WLS-007”, “ERS12561752” for “ERS12561742”; conditions: 2 µM
[12] = as §1, with “Z-026” for “Z-021”, “ERS12561825” for “ERS12561820”; conditions: 2 µM
[13] = human gut metagenome, 24 h, 2 µM; remark: listed apart in the source
[14] = as §1, with “Z-027” for “Z-021”, “ERS12561826” for “ERS12561820”; conditions: 2 µM
[15] = human gut metagenome, 24 h, 2 µM; remark: listed apart in the source
[16] = as §2, with “WLS-310” for “WLS-007”, “ERS12561785” for “ERS12561742”; conditions: 2 µM
[17] = human gut metagenome, 24 h, 2 µM; remark: listed apart in the source
[18] = as §2, with “Z-025” for “WLS-007”, “rabbit” for “human”, “ERS12561824” for “ERS12561742”; conditions: 2 µM
[19] = human gut metagenome, 24 h, 2 µM; remark: listed apart in the source
[20] = human gut metagenome, 24 h, 2 µM; remark: listed apart in the source
Also: call rule not given here.

Structure (SMILES): COC(=O)C(c1ccccc1)C1CCCCN1 (stereo not given) [METHYLPHENIDATE]
- Bacterial Biotransformation [1]: Compound metabolized
- Bacterial Biotransformation [2]: Compound NOT metabolized
- Bacterial Biotransformation [3]: Compound metabolized
- Bacterial Biotransformation [4]: Compound NOT metabolized
- Bacterial Biotransformation [5]: Compound NOT metabolized
- Bacterial Biotransformation [6]: Compound NOT metabolized
- Bacterial Biotransformation [7]: Compound NOT metabolized
- Bacterial Biotransformation [8]: Compound metabolized
- Bacterial Biotransformation [9]: Compound metabolized
- Bacterial Biotransformation [10]: Compound NOT metabolized
- Bacterial Biotransformation [11]: Compound NOT metabolized
- Bacterial Biotransformation [12]: Compound NOT metabolized
- Bacterial Biotransformation [13]: Compound metabolized
- Bacterial Biotransformation [14]: Compound NOT metabolized
- Bacterial Biotransformation [15]: Compound NOT metabolized
- Bacterial Biotransformation [16]: Compound NOT metabolized
- Bacterial Biotransformation [17]: Compound NOT metabolized
- Bacterial Biotransformation [18]: Compound NOT metabolized
- Bacterial Biotransformation [19]: Compound metabolized
- Bacterial Biotransformation [20]: Compound metabolized

Structure (SMILES): CN1CCN2c3ccccc3Cc3ccccc3C2C1 (stereo not given) [MIANSERIN]
- Bacterial Biotransformation [1]: Compound metabolized
- Bacterial Biotransformation [2]: Compound NOT metabolized
- Bacterial Biotransformation [3]: Compound NOT metabolized
- Bacterial Biotransformation [4]: Compound NOT metabolized
- Bacterial Biotransformation [5]: Compound NOT metabolized
- Bacterial Biotransformation [6]: Compound NOT metabolized
- Bacterial Biotransformation [7]: Compound NOT metabolized
- Bacterial Biotransformation [8]: Compound metabolized
- Bacterial Biotransformation [9]: Compound NOT metabolized
- Bacterial Biotransformation [10]: Compound metabolized
- Bacterial Biotransformation [11]: Compound metabolized
- Bacterial Biotransformation [12]: Compound NOT metabolized
- Bacterial Biotransformation [13]: Compound NOT metabolized
- Bacterial Biotransformation [14]: Compound NOT metabolized
- Bacterial Biotransformation [15]: Compound metabolized
- Bacterial Biotransformation [16]: Compound NOT metabolized
- Bacterial Biotransformation [17]: Compound metabolized
- Bacterial Biotransformation [18]: Compound metabolized
- Bacterial Biotransformation [19]: Compound metabolized
- Bacterial Biotransformation [20]: Compound metabolized

Structure (SMILES): CC#C[C@]1(O)CC[C@H]2[C@@H]3CCC4=CC(=O)CCC4=C3[C@@H](c3ccc(N(C)C)cc3)C[C@@]21C [MIFEPRISTONE]
- Bacterial Biotransformation [1]: Compound NOT metabolized
- Bacterial Biotransformation [2]: Compound metabolized
- Bacterial Biotransformation [3]: Compound metabolized
- Bacterial Biotransformation [4]: Compound NOT metabolized
- Bacterial Biotransformation [5]: Compound NOT metabolized
- Bacterial Biotransformation [6]: Compound metabolized
- Bacterial Biotransformation [7]: Compound NOT metabolized
- Bacterial Biotransformation [8]: Compound metabolized
- Bacterial Biotransformation [9]: Compound metabolized
- Bacterial Biotransformation [10]: Compound metabolized
- Bacterial Biotransformation [11]: Compound metabolized
- Bacterial Biotransformation [12]: Compound NOT metabolized
- Bacterial Biotransformation [13]: Compound NOT metabolized
- Bacterial Biotransformation [14]: Compound NOT metabolized
- Bacterial Biotransformation [15]: Compound metabolized
- Bacterial Biotransformation [16]: Compound metabolized
- Bacterial Biotransformation [17]: Compound metabolized
- Bacterial Biotransformation [18]: Compound NOT metabolized
- Bacterial Biotransformation [19]: Compound metabolized
- Bacterial Biotransformation [20]: Compound metabolized

Structure (SMILES): CC(C)(C)NCC(O)COc1cccc2c1CC(O)C(O)C2 (stereo not given) [NADOLOL]
- Bacterial Biotransformation [1]: Compound NOT metabolized
- Bacterial Biotransformation [2]: Compound NOT metabolized
- Bacterial Biotransformation [3]: Compound metabolized
- Bacterial Biotransformation [4]: Compound NOT metabolized
- Bacterial Biotransformation [5]: Compound NOT metabolized
- Bacterial Biotransformation [6]: Compound NOT metabolized
- Bacterial Biotransformation [7]: Compound NOT metabolized
- Bacterial Biotransformation [8]: Compound NOT metabolized
- Bacterial Biotransformation [9]: Compound NOT metabolized
- Bacterial Biotransformation [10]: Compound metabolized
- Bacterial Biotransformation [11]: Compound metabolized
- Bacterial Biotransformation [12]: Compound NOT metabolized
- Bacterial Biotransformation [13]: Compound metabolized
- Bacterial Biotransformation [14]: Compound NOT metabolized
- Bacterial Biotransformation [15]: Compound metabolized
- Bacterial Biotransformation [16]: Compound metabolized
- Bacterial Biotransformation [17]: Compound metabolized
- Bacterial Biotransformation [18]: Compound NOT metabolized
- Bacterial Biotransformation [19]: Compound NOT metabolized
- Bacterial Biotransformation [20]: Compound metabolized

Structure (SMILES): CC(C)[C@H]1CC[C@H](C(=O)N[C@H](Cc2ccccc2)C(=O)O)CC1 [NATEGLINIDE]
- Bacterial Biotransformation [1]: Compound metabolized
- Bacterial Biotransformation [2]: Compound metabolized
- Bacterial Biotransformation [3]: Compound metabolized
- Bacterial Biotransformation [4]: Compound NOT metabolized
- Bacterial Biotransformation [5]: Compound NOT metabolized
- Bacterial Biotransformation [6]: Compound metabolized
- Bacterial Biotransformation [7]: Compound metabolized
- Bacterial Biotransformation [8]: Compound metabolized
- Bacterial Biotransformation [9]: Compound metabolized
- Bacterial Biotransformation [10]: Compound metabolized
- Bacterial Biotransformation [11]: Compound metabolized
- Bacterial Biotransformation [12]: Compound NOT metabolized
- Bacterial Biotransformation [13]: Compound metabolized
- Bacterial Biotransformation [14]: Compound metabolized
- Bacterial Biotransformation [15]: Compound metabolized
- Bacterial Biotransformation [16]: Compound metabolized
- Bacterial Biotransformation [17]: Compound metabolized
- Bacterial Biotransformation [18]: Compound metabolized
- Bacterial Biotransformation [19]: Compound metabolized
- Bacterial Biotransformation [20]: Compound metabolized

Structure (SMILES): CN(C)C(=O)Oc1cccc([N+](C)(C)C)c1.[Br-] [NEOSTIGMINE BROMIDE]
- Bacterial Biotransformation [1]: Compound NOT metabolized
- Bacterial Biotransformation [2]: Compound NOT metabolized
- Bacterial Biotransformation [3]: Compound NOT metabolized
- Bacterial Biotransformation [4]: Compound NOT metabolized
- Bacterial Biotransformation [5]: Compound NOT metabolized
- Bacterial Biotransformation [6]: Compound NOT metabolized
- Bacterial Biotransformation [7]: Compound NOT metabolized
- Bacterial Biotransformation [8]: Compound NOT metabolized
- Bacterial Biotransformation [9]: Compound NOT metabolized
- Bacterial Biotransformation [10]: Compound NOT metabolized
- Bacterial Biotransformation [11]: Compound NOT metabolized
- Bacterial Biotransformation [12]: Compound NOT metabolized
- Bacterial Biotransformation [13]: Compound NOT metabolized
- Bacterial Biotransformation [14]: Compound NOT metabolized
- Bacterial Biotransformation [15]: Compound NOT metabolized
- Bacterial Biotransformation [16]: Compound NOT metabolized
- Bacterial Biotransformation [17]: Compound NOT metabolized
- Bacterial Biotransformation [18]: Compound NOT metabolized
- Bacterial Biotransformation [19]: Compound NOT metabolized
- Bacterial Biotransformation [20]: Compound NOT metabolized

Structure (SMILES): Cc1ccccc1C(OCCN(C)C)c1ccccc1.O=C(O)CC(O)(CC(=O)O)C(=O)O (stereo not given) [ORPHENADRINE CITRATE]
- Bacterial Biotransformation [1]: Compound metabolized
- Bacterial Biotransformation [2]: Compound metabolized
- Bacterial Biotransformation [3]: Compound NOT metabolized
- Bacterial Biotransformation [4]: Compound NOT metabolized
- Bacterial Biotransformation [5]: Compound NOT metabolized
- Bacterial Biotransformation [6]: Compound metabolized
- Bacterial Biotransformation [7]: Compound NOT metabolized
- Bacterial Biotransformation [8]: Compound NOT metabolized
- Bacterial Biotransformation [9]: Compound NOT metabolized
- Bacterial Biotransformation [10]: Compound NOT metabolized
- Bacterial Biotransformation [11]: Compound NOT metabolized
- Bacterial Biotransformation [12]: Compound NOT metabolized
- Bacterial Biotransformation [13]: Compound NOT metabolized
- Bacterial Biotransformation [14]: Compound NOT metabolized
- Bacterial Biotransformation [15]: Compound metabolized
- Bacterial Biotransformation [16]: Compound NOT metabolized
- Bacterial Biotransformation [17]: Compound metabolized
- Bacterial Biotransformation [18]: Compound metabolized
- Bacterial Biotransformation [19]: Compound metabolized
- Bacterial Biotransformation [20]: Compound metabolized

Reference: ChEMBL document CHEMBL5724914, “Linking interpersonal differences in gut microbiota composition and drug biotransformation activity” (2024)
